Experimental data published in US12552767B2, “3-heteroaryl pyrrolidine and piperidine orexin receptor agonists” (Merck Sharp & Dohme LLC, priority 2020, dated 2026).
pEC50: −log10 of the molar value.

Target: T1, human OX2R (Homo sapiens, UniProt O43614)
T1 construct: expressed in transfected cells; host or cells: CHO (Chinese hamster ovary) cells, grown under G418 selection
T1 sequence (O43614 1-444): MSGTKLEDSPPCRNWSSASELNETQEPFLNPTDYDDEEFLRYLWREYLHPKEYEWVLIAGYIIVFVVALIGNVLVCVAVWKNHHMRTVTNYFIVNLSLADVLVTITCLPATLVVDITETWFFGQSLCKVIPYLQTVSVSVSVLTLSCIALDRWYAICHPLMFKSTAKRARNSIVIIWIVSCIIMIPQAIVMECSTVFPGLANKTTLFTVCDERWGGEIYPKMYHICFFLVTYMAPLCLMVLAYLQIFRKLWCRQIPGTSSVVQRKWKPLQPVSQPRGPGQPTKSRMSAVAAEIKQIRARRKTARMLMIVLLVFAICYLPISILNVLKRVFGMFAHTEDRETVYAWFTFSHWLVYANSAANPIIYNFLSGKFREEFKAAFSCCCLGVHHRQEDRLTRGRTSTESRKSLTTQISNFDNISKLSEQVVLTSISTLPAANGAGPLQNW
Assay: IP-One (IPOne) orexin receptor agonist assay in CHO cells expressing human OX2R
Assay type: cell-based
Details: for pEC50: CHO cells expressing human OX2R, IP-One IP-1 detection, 2 hours incubation, four parameter logistic fit, read-out: OX2R Potency, EC50; for % of reference agonist maximal effect: human OX2R, percentage of sample raw value/mean max effect (reference compound at 1 uM with 100% activity)
How it was run: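 CHO cells stably expressing human OX2R were stimulated with compound (10-point ½-log dilutions) for 2 h at 37 °C. IP-1 accumulation was read by HTRF (IP-One, 665/620 nm). EC50 from a four-parameter fit; % effect relative to 1 μM reference agonist control.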

| pEC50 | % of reference agonist maximal effect | Compound |
| --- | --- | --- |
| 5.99 | 98.7% | COC(=O)COC(=O)N1CCC[C@H](c2cc[nH]n2)[C@@H]1CO[C@H]1CC[C@@H](c2ccccc2)CC1 (relative stereo) [Example 98, 2-methoxy-2-oxoethyl (CIS)-2-((((CIS)-4-phenylcyclohexyl)oxy)methyl)-3-(1H-pyrazol-3-yl)piperidine-1-carboxylate] |
| 5.74 | 88.9% | CC(OC(=O)N1CCC[C@H](c2cc[nH]n2)[C@@H]1CO[C@H]1CC[C@@H](c2ccccc2)CC1)C(F)F (relative stereo) [Example 99, 1,1-difluoropropan-2-yl (CIS)-2-((((CIS)-4-phenylcyclohexyl)oxy)methyl)-3-(1H-pyrazol-3-yl)piperidine-1-carboxylate] |
| 5.63 | 61.8% | C#CCOC(=O)N1CCC[C@H](c2cc[nH]n2)[C@@H]1CO[C@H]1CC[C@@H](c2ccccc2)CC1 (relative stereo) [Example 100, prop-2-yn-1-yl (CIS)-2-((((CIS)-4-phenylcyclohexyl)oxy)methyl)-3-(1H-pyrazol-3-yl)piperidine-1-carboxylate] |
| 5.53 | 40.7% | O=C(OCC(F)(F)F)N1CCC[C@H](c2cc[nH]n2)[C@@H]1CO[C@H]1CC[C@@H](c2ccccc2)CC1 (relative stereo) [Example 102, 2,2,2-trifluoroethyl (CIS)-2-((((CIS)-4-phenylcyclohexyl)oxy)methyl)-3-(1H-pyrazol-3-yl)piperidine-1-carboxylate] |
| 5.44 | 73.6% | CC#CCOC(=O)N1CCC[C@H](c2cc[nH]n2)[C@@H]1CO[C@H]1CC[C@@H](c2ccccc2)CC1 (relative stereo) [Example 103, but-2-yn-1-yl (CIS)-2-((((CIS)-4-phenylcyclohexyl)oxy)methyl)-3-(1H-pyrazol-3-yl)piperidine-1-carboxylate] |
| 5.41 | 65.1% | O=C(OCC1CCC1)N1CCC[C@H](c2cc[nH]n2)[C@@H]1CO[C@H]1CC[C@@H](c2ccccc2)CC1 (relative stereo) [Example 104, cyclobutylmethyl (CIS)-2-((((CIS)-4-phenylcyclohexyl)oxy)methyl)-3-(1H-pyrazol-3-yl)piperidine-1-carboxylate] |
| 5.40 | 64.9% | CC(C)COC(=O)N1CCC[C@H](c2cc[nH]n2)[C@@H]1CO[C@H]1CC[C@@H](c2ccccc2)CC1 (relative stereo) [Example 105, isobutyl (CIS)-2-((((CIS)-4-phenylcyclohexyl)oxy)methyl)-3-(1H-pyrazol-3-yl)piperidine-1-carboxylate] |
| 5.29 | 71.4% | CC#CCCOC(=O)N1CCC[C@H](c2cc[nH]n2)[C@@H]1CO[C@H]1CC[C@@H](c2ccccc2)CC1 (relative stereo) [Example 106, pent-3-yn-1-yl (CIS)-2-((((CIS)-4-phenylcyclohexyl)oxy)methyl)-3-(1H-pyrazol-3-yl)piperidine-1-carboxylate] |
| 5.26 | 78.6% | Cc1cnc(COC(=O)N2CCC[C@H](c3cc[nH]n3)[C@@H]2CO[C@H]2CC[C@@H](c3ccccc3)CC2)o1 (relative stereo) [Example 109, (5-methyloxazol-2-yl)methyl (CIS)-2-((((CIS)-4-phenylcyclohexyl)oxy)methyl)-3-(1H-pyrazol-3-yl)piperidine-1-carboxylate] |
| 5.21 | 58.5% | CC(F)(F)COC(=O)N1CCC[C@H](c2cc[nH]n2)[C@@H]1CO[C@H]1CC[C@@H](c2ccccc2)CC1 (relative stereo) [Example 110, 2,2-difluoropropyl (CIS)-2-((((CIS)-4-phenylcyclohexyl)oxy)methyl)-3-(1H-pyrazol-3-yl)piperidine-1-carboxylate] |
| 5.20 | 78.4% | O=C(OCCF)N1CCC[C@H](c2cc[nH]n2)[C@@H]1CO[C@H]1CC[C@@H](c2ccccc2)CC1 (relative stereo) [Example 111, 2-fluoroethyl (CIS)-2-((((CIS)-4-phenylcyclohexyl)oxy)methyl)-3-(1H-pyrazol-3-yl)piperidine-1-carboxylate] |
| 5.20 | 61.6% | O=C(OC1CCC1)N1CCC[C@H](c2cc[nH]n2)[C@@H]1CO[C@H]1CC[C@@H](c2ccccc2)CC1 (relative stereo) [Example 112, cyclobutyl (CIS)-2-((((CIS)-4-phenylcyclohexyl)oxy)methyl)-3-(1H-pyrazol-3-yl)piperidine-1-carboxylate] |
| 5.18 | 57.4% | O=C(OC(CF)CF)N1CCC[C@H](c2cc[nH]n2)[C@@H]1CO[C@H]1CC[C@@H](c2ccccc2)CC1 (relative stereo) [Example 113, 1,3-difluoropropan-2-yl (CIS)-2-((((CIS)-4-phenylcyclohexyl)oxy)methyl)-3-(1H-pyrazol-3-yl)piperidine-1-carboxylate] |
| 5.17 | 80.5% | COC(=O)CCOC(=O)N1CCC[C@H](c2cc[nH]n2)[C@@H]1CO[C@H]1CC[C@@H](c2ccccc2)CC1 (relative stereo) [Example 114, 3-methoxy-3-oxopropyl (CIS)-2-((((CIS)-4-phenylcyclohexyl)oxy)methyl)-3-(1H-pyrazol-3-yl)piperidine-1-carboxylate] |
| 5.10 | 47.3% | O=C(OC1CCCC1)N1CCC[C@H](c2cc[nH]n2)[C@@H]1CO[C@H]1CC[C@@H](c2ccccc2)CC1 (relative stereo) [Example 117, cyclopentyl (CIS)-2-((((CIS)-4-phenylcyclohexyl)oxy)methyl)-3-(1H-pyrazol-3-yl)piperidine-1-carboxylate] |
| 5.05 | 47.9% | COCCCOC(=O)N1CCC[C@H](c2cc[nH]n2)[C@@H]1CO[C@H]1CC[C@@H](c2ccccc2)CC1 (relative stereo) [Example 118, 3-methoxypropyl (CIS)-2-((((CIS)-4-phenylcyclohexyl)oxy)methyl)-3-(1H-pyrazol-3-yl)piperidine-1-carboxylate] |
| 5.94 | 97.8% | C=CCNC(=O)N1CCC[C@H](c2cc[nH]n2)[C@@H]1CO[C@H]1CC[C@@H](C(C)C)CC1 (relative stereo) [Example 120, (CIS)-N-allyl-2-((((CIS)-4-isopropylcyclohexyl)oxy)methyl)-3-(1H-pyrazol-3-yl)piperidine-1-carboxamide] |
| 5.81 | 96.1% | CC(C)NC(=O)N1CCC[C@H](c2cc[nH]n2)[C@@H]1CO[C@H]1CC[C@@H](C(C)C)CC1 (relative stereo) [Example 121, (CIS)-N-isopropyl-2-((((CIS)-4-isopropylcyclohexyl)oxy)methyl)-3-(1H-pyrazol-3-yl)piperidine-1-carboxamide] |

| Compound | pEC50 | % of reference agonist maximal effect |
| --- | --- | --- |
| O=C(Oc1cccnc1)N1CCC[C@H](c2cc[nH]n2)[C@@H]1CO[C@H]1CC[C@@H](c2ccccc2)CC1 (relative stereo) [Example 101, pyridin-3-yl (CIS)-2-((((CIS)-4-phenylcyclohexyl)oxy)methyl)-3-(1H-pyrazol-3-yl)piperidine-1-carboxylate] | 5.60 | 77.7% |
